Experiments:
[1] = target: T1, VCPIP (Homo sapiens, UniProt Q96JH7); assay: biochemical; design: Ubiquigent DUB profiler selectivity panel, remaining enzyme activity as % of control; conditions: read-out: % of control remaining
T1 construct: gene VCPIP1
T1 sequence (Q96JH7 1-1222): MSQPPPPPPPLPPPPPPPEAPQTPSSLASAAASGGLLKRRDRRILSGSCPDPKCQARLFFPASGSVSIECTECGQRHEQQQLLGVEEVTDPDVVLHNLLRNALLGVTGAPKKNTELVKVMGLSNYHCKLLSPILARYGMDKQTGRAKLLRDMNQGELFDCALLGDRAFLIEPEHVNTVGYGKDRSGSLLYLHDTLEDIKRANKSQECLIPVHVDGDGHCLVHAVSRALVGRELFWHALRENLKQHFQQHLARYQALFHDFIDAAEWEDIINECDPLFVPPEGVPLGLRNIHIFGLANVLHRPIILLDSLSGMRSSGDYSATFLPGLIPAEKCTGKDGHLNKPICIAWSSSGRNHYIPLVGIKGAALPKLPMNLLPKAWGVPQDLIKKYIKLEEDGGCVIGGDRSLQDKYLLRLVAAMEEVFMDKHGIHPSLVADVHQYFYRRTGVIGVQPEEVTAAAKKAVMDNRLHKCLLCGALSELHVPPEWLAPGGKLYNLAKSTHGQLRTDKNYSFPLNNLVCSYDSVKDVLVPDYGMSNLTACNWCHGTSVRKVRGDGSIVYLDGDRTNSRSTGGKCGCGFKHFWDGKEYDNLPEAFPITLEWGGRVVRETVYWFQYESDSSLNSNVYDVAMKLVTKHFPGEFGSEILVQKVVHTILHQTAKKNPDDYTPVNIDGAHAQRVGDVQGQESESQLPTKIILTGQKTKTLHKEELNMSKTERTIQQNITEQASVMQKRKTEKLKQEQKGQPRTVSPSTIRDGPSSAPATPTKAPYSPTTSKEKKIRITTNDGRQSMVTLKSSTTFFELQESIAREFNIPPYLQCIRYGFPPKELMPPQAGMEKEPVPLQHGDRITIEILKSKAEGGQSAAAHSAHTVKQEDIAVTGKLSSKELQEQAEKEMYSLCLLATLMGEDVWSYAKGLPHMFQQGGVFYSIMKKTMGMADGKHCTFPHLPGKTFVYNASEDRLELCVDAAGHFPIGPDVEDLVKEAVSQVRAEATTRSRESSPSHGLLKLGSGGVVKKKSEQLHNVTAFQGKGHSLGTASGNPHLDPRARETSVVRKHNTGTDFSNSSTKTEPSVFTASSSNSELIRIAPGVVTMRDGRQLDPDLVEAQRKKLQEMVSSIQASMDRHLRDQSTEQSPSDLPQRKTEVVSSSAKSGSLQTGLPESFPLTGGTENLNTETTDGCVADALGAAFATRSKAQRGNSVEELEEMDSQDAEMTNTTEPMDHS
Outline: (§1)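 In YFP-PRKN-overexpressing hTERT-RPE1 cells, 1 h antimycin A plus oligomycin A (1 μM each) with CMPD-39, then Western blot of TOMM20 ubiquitylation. Target engagement: 2 h compound, then 10 min HA-Ub-PA at 37°C, read as USP30 shift. DUB panel (>40 enzymes) screened at 1-100 μM.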

[2] = target: T2, UCHL3 (Homo sapiens, UniProt P15374); assay: biochemical; design: Ubiquigent DUB profiler selectivity panel, remaining enzyme activity as % of control; conditions: read-out: % of control remaining
T2 sequence (P15374 1-230): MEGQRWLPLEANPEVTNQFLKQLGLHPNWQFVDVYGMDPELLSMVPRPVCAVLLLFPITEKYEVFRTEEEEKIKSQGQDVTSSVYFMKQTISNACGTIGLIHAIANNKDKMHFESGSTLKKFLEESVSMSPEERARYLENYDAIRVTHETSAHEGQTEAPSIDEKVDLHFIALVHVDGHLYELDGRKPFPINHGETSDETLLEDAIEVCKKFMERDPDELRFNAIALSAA
Outline: as §1

Q: What does the source list for `CC(C)(C)NS(=O)(=O)c1ccc(NC(=O)[C@H](Cc2ccccc2)NC(=O)c2ccc(F)cc2)cc1` [compound 39, CMPD-39]?
A: remaining activity at 1 µM [1]: 109%; remaining activity at 10 µM [1]: 96.5%; remaining activity at 100 µM [1]: 95.6%; remaining activity at 1 µM [2]: 107%; remaining activity at 10 µM [2]: 98.8%; remaining activity at 100 µM [2]: 97.6%
